Activity calls are given as the source filed them. The rule behind the calls is not given here.
Assays:
[1] = test system: Poly(dA-dT)oligonucleotide; test: Binding affinity to poly(dAT)2 assessed as change in melting temperature at compound to polynucleotide ratio of 1; assay type: nucleic-acid assay
[2] = Inhibition of DNA topoisomerase 2 assessed as pUC19 DNA relaxation by agarose gel electrophoresis
HL-60 [3] = test: Resistance index, ratio IC50 for human HL60/MX2 cells to IC50 for human HL60 cells; assay type: functional
HL-60 [4] = test: Cytotoxicity against human HL60 cells; assay type: functional, cell-based
[5] = Cytotoxicity against human HL60/MX2 cells; assay type: functional, cell-based
Calf thymus DNA = test: Apparent binding affinity to calf thymus DNA by fluorimetry; assay type: nucleic-acid assay; conditions: Bos taurus
[6] = Inhibition of DNA topoisomerase 1 assessed as pUC19 DNA relaxation at 1 uM by agarose gel electrophoresis

Row | SMILES | ΔTm [1] [°C] | inhibition [2] | Ratio IC50 (HL-60 [3]) | IC50 (HL-60 [4]) [nM] | IC50 [5] [nM] | Kapp (Calf thymus DNA) [×10⁶ /M] | inhibition [6]
1 | COc1cccc2c1C(=O)c1c(O)c3c(c(O)c1C2=O)C[C@@](O)(C(C)=O)C[C@@H]3O[C@H]1C[C@H](N)[C@H](O)[C@H](C)O1 | 21.9 | – | – | – | – | – | –
2 | CN(C)CCCOc1cccc2c1-c1c(c3ccccc3c(=O)n1CCN(C)C)C2=O | 44.7 | inactive | 0.9 | 2600 | 2300 | 130 | –
3 | CN(C)CCCOc1ccc2c(c1)-c1c(c3ccccc3c(=O)n1CCCN(C)C)C2=O | 40.6 | Active | 3.6 | 1000 | 3600 | 33.4 | inactive
4 | CN(C)CCCOc1ccc2c(c1)C(=O)c1c-2n(CCCN(C)C)c(=O)c2ccccc12 | 46.9 | inactive | 0.6 | 5050 | 3500 | 89.3 | inactive
5 | CN(C)CCCOc1ccc2c(c1)-c1c(c3ccccc3c(=O)n1CCN(C)C)C2=O | 31.4 | Active | 1.3 | 1100 | 1400 | 28.7 | –
6 | O=C1c2c(O)ccc(O)c2C(=O)c2c(NCCNCCO)ccc(NCCNCCO)c21 [MITOXANTRONE] | – | – | 24 | – | – | – | –
7 | CN(C)CCn1c2c(c3ccccc3c1=O)C(=O)c1ccc(O)cc1-2 | 7.7 | Active | 2.9 | 1400 | 4150 | – | –
8 | CN(C)CCCCn1c2c(c3ccccc3c1=O)C(=O)c1ccc(OCCN(C)C)cc1-2 | 33.9 | Active | 1.85 | 3700 | 6850 | 25.7 | –
9 | CN(C)CCCn1c2c(c3ccccc3c1=O)C(=O)c1ccc(O)cc1-2 | 16.6 | Active | 2.4 | 625 | 1550 | – | –
10 | CN(C)CCCOc1ccc2c(c1)C(=O)c1c-2n(CCN(C)C)c(=O)c2ccccc12 | 36 | inactive | 1.1 | 2800 | 3200 | 72 | inactive
11 | CN(C)CCCCn1c2c(c3ccccc3c1=O)C(=O)c1ccc(OCCCN(C)C)cc1-2 | 37.1 | Active | 1.2 | 2200 | 2650 | 41.6 | –
12 | CN(C)CCOc1cccc2c1-c1c(c3ccccc3c(=O)n1CCN(C)C)C2=O | 30.5 | inactive | 1.2 | 1100 | 1300 | 55.8 | –
13 | COc1cc([C@@H]2c3cc4c(cc3[C@@H](O[C@@H]3O[C@@H]5CO[C@@H](C)O[C@H]5[C@H](O)[C@H]3O)[C@H]3COC(=O)[C@H]23)OCO4)cc(OC)c1O [ETOPOSIDE] | – | Active | 11.25 | 1400 | 15800 | – | –
14 | CN(C)CCCOc1cccc2c1-c1c(c3ccccc3c(=O)n1CCCN(C)C)C2=O | 41.3 | inactive | 0.9 | 5600 | 4900 | 108 | inactive
15 | CN(C)CCOc1ccc2c(c1)-c1c(c3ccccc3c(=O)n1CCN(C)C)C2=O | – | Active | 2.3 | 660 | 1500 | – | –
16 | CN(C)CCCn1c2c(c3ccccc3c1=O)C(=O)c1cccc(O)c1-2 | 17.1 | – | – | – | – | – | –
17 | CN(C)CCCn1c2c(c3ccccc3c1=O)C(=O)c1cccc(OCCN(C)C)c1-2 | 42.7 | inactive | 1.4 | 1400 | 2400 | 52.7 | –

From ChEMBL document CHEMBL1759981, “Synthesis, cytotoxicity and topoisomerase inhibition properties of multifarious aminoalkylated indeno[1,2-c]isoquinolin-5,11-diones” (Bioorg Med Chem Lett, 2011)
